Patent publication US9957278B2, “Furopyridine compounds for the treatment of hepatitis C” (BRISTOL-MYERS SQUIBB COMPANY, priority 2014, dated 2018)
Like-named read-outs stand apart in the source and are kept apart here.

System: genotype 1b (Con-1) HCV replicon
Test: HCV Replicon Luciferase Assay (genotype 1b)
Type: cell-based
Details: Hepatitis C virus, 72 h, genotype 1b replicon in Huh-7 cells, Renilla luciferase, 3 days incubation
Protocol: The cell lines used to evaluate compounds consist of a human hepatocyte derived cell line (Huh-7) that constitutively expresses a genotype 1b (Con-1) HCV replicon or a genotype 1b (Con-1) HCV replicon with an asparagine replacing the cysteine at amino acid 316, or a genotype 2a (JFH-1) replicon, containing a Renilla luciferase reporter gene. These cells were maintained in Dulbecco's modified Eagle medium (DMEM) containing 10% FBS, 100 U/mL penicillin/streptomycin and 1.0 mg/mL G418.
To evaluate compound efficacy, titrated compounds were transferred to sterile 384-well tissue culture treated plates, and the plates were seeded with HCV replicon cells (50 μL at a density of 2.4×10^3 cells/well) in DMEM containing 4% FBS (final DMSO concentration at 0.5%). After 3 days incubation at 37° C., cells were analyzed for Renilla Luciferase activity using the EnduRen substrate (Promega cat #E6485) according to the manufacturer's directions. Briefly, the EnduRen substrate was diluted in DMEM and then added to the plates to a final concentration of 7.5 μM. The plates were incubated for at least 1 h at 37° C. then read on a Viewlux Imager (PerkinElmer) using a luminescence program. The 50% effective concentration (EC50) was calculated using the four-parameter logistic formula noted above.
Compound EC50 data is expressed as A: <100 nM; B=100-1000 nM; C>1000 nM).

Structure (SMILES)	EC50 (read-out: EC50 1b (class)) [µM]	EC50 (read-out: EC50 (uM) 1b) [µM]
CNC(=O)c1c(-c2ccc(F)cc2)oc2nc(Cl)c(-c3ccc(OC)c(C(=O)NCC(F)(F)C(F)(F)C(F)(F)F)c3)cc12 [Compound 10001]	0.1 to 1	0.149
C#CC(C)(C)NC(=O)c1cc(-c2cc3c(C(=O)NC)c(-c4ccc(F)cc4)oc3nc2Cl)ccc1OC [Compound 10002]	< 0.1	0.0362
CNC(=O)c1c(-c2ccc(F)cc2)oc2nc(Cl)c(-c3ccc(OC)c(C(=O)NC(CF)(CF)CF)c3)cc12 [Compound 10003]	0.1 to 1	–
CNC(=O)c1c(-c2ccc(F)cc2)oc2nc(Cl)c(-c3cccc(C(=O)NC(CF)(CF)CF)c3)cc12 [Compound 11001]	0.1 to 1	–
CNC(=O)c1c(-c2ccc(F)cc2)oc2nc(CCC(F)(F)F)c(-c3cccc(C(=O)NC(C)(C)C(F)(F)F)c3)cc12 [Compound 20001]	< 0.1	0.0063
CNC(=O)c1c(-c2ccc(F)cc2)oc2nc(CCC(F)(F)F)c(-c3cccc(C(=O)NC(CF)(CF)CF)c3)cc12 [Compound 20002]	< 0.1	–
C#CC(C)(C)NC(=O)c1cccc(-c2cc3c(C(=O)NC)c(-c4ccc(F)cc4)oc3nc2CCC(F)(F)F)c1 [Compound 20003]	< 0.1	0.004
CNC(=O)c1c(-c2ccc(F)cc2)oc2nc(CCC(F)(F)F)c(-c3cccc(C(=O)NC(C)C(F)(F)F)c3)cc12 (stereo not drawn) [Compound 20004]	< 0.1	–
CCC(NC(=O)c1cccc(-c2cc3c(C(=O)NC)c(-c4ccc(F)cc4)oc3nc2CCC(F)(F)F)c1)C(F)(F)F (stereo not drawn) [Compound 20005]	< 0.1	–
CNC(=O)c1c(-c2ccc(F)cc2)oc2nc(CCC(F)(F)F)c(-c3cccc(C(=O)N[C@@H](CO)C4CC4)c3)cc12 [Compound 20006]	< 0.1	–
CNC(=O)c1c(-c2ccc(F)cc2)oc2nc(CCC(F)(F)F)c(-c3cccc(C(=O)NC(C)(C)C4CC4)c3)cc12 [Compound 20007]	< 0.1	–
CNC(=O)c1c(-c2ccc(F)cc2)oc2nc(CCC(F)(F)F)c(-c3cccc(C(=O)NC(C4CC4)C4CC4)c3)cc12 [Compound 20008]	< 0.1	–
CC[C@@H](NC(=O)c1cccc(-c2cc3c(C(=O)NC)c(-c4ccc(F)cc4)oc3nc2CCC(F)(F)F)c1)C1CC1 [Compound 20009]	< 0.1	0.01
CC[C@H](NC(=O)c1cccc(-c2cc3c(C(=O)NC)c(-c4ccc(F)cc4)oc3nc2CCC(F)(F)F)c1)C1CC1 [Compound 20010]	< 0.1	–
CNC(=O)c1c(-c2ccc(F)cc2)oc2nc(CCC(F)(F)F)c(-c3cccc(C(=O)N[C@@H](C)C4CC4)c3)cc12 [Compound 20011]	< 0.1	–
CNC(=O)c1c(-c2ccc(F)cc2)oc2nc(CCC(F)(F)F)c(-c3cccc(C(=O)N[C@H](C)C4CC4)c3)cc12 [Compound 20012]	< 0.1	–
CNC(=O)c1c(-c2ccc(F)cc2)oc2nc(CCC(F)(F)F)c(-c3cccc(C(=O)NC(C)C4CC4)c3)cc12 (stereo not drawn) [Compound 20013]	< 0.1	–
CNC(=O)c1c(-c2ccc(F)cc2)oc2nc(CCC(F)(F)F)c(-c3cccc(C(=O)N[C@@H](COC)C4CC4)c3)cc12 [Compound 20014]	< 0.1	–
CNC(=O)c1c(-c2ccc(F)cc2)oc2nc(CCC(F)(F)F)c(-c3cccc(C(=O)N[C@H](COC)C4CC4)c3)cc12 [Compound 20015]	< 0.1	0.0056
CNC(=O)c1c(-c2ccc(F)cc2)oc2nc(CCC(F)(F)F)c(-c3cccc(C(=O)NC(COC)C4CC4)c3)cc12 (stereo not drawn) [Compound 20016]	< 0.1	0.0217
CNC(=O)c1c(-c2ccc(F)cc2)oc2nc(CCC(F)(F)F)c(-c3cccc(C(=O)NC(c4ccccc4)C4CC4)c3)cc12 (stereo not drawn) [Compound 20017]	< 0.1	–
CNC(=O)c1c(-c2ccc(F)cc2)oc2nc(CCC(F)(F)F)c(-c3cccc(C(=O)N4CC5(CCC5C(=O)OC)C4)c3)cc12 (stereo not drawn) [Compound 20018]	0.1 to 1	0.11
CNC(=O)c1c(-c2ccc(F)cc2)oc2nc(CCC(F)(F)F)c(-c3cccc(C(=O)NCC(F)(F)F)c3)cc12 [Compound 20019]	< 0.1	–
CNC(=O)c1c(-c2ccc(F)cc2)oc2nc(CCC(F)(F)F)c(-c3cccc(C(=O)NC4CCNC4=O)c3)cc12 (stereo not drawn) [Compound 20020]	< 0.1	0.0519
CNC(=O)c1c(-c2ccc(F)cc2)oc2nc(CCC(F)(F)F)c(-c3cccc(C(=O)NCC(F)F)c3)cc12 [Compound 20021]	< 0.1	–
CNC(=O)c1c(-c2ccc(F)cc2)oc2nc(CCC(F)(F)F)c(-c3cccc(C(=O)NCC(F)(F)C(F)(F)F)c3)cc12 [Compound 20022]	< 0.1	0.0059

Structure (SMILES)	EC50 (read-out: EC50 1b (class)) [µM]	EC50 (read-out: EC50 (uM) 1b) [µM]
CNC(=O)c1c(-c2ccc(F)cc2)oc2nc(CCC(F)(F)F)c(-c3cccc(C(=O)NC(C)(C)C(=O)OC)c3)cc12 [Compound 20023]	< 0.1	–
CNC(=O)c1c(-c2ccc(F)cc2)oc2nc(CCC(F)(F)F)c(-c3cccc(C(=O)NC(C)(C)CF)c3)cc12 [Compound 20025]	< 0.1	–
CNC(=O)c1c(-c2ccc(F)cc2)oc2nc(CCC(F)(F)F)c(-c3cccc(C(=O)NCC(C)(C)CO)c3)cc12 [Compound 20026]	< 0.1	0.0043
CNC(=O)c1c(-c2ccc(F)cc2)oc2nc(CCC(F)(F)F)c(-c3cccc(C(=O)NC(C)(CO)CO)c3)cc12 [Compound 20027]	< 0.1	–
CCOC(=O)C(C)(C)NC(=O)c1cccc(-c2cc3c(C(=O)NC)c(-c4ccc(F)cc4)oc3nc2CCC(F)(F)F)c1 [Compound 20029]	< 0.1	–
CNC(=O)c1c(-c2ccc(F)cc2)oc2nc(CCC(F)(F)F)c(-c3cccc(C(=O)NCC(C)(C)C)c3)cc12 [Compound 20030]	< 0.1	–
CNC(=O)c1c(-c2ccc(F)cc2)oc2nc(CCC(F)(F)F)c(-c3cccc(C(=O)NC4CCOCC4)c3)cc12 [Compound 20031]	< 0.1	0.0136
CNC(=O)c1c(-c2ccc(F)cc2)oc2nc(CCC(F)(F)F)c(-c3cccc(C(=O)NCC4(COC)CC4)c3)cc12 [Compound 20032]	< 0.1	–
CNC(=O)c1c(-c2ccc(F)cc2)oc2nc(CCC(F)(F)F)c(-c3cccc(C(=O)NCC(C)(C)COC)c3)cc12 [Compound 20033]	< 0.1	–
CNC(=O)c1c(-c2ccc(F)cc2)oc2nc(CCC(F)(F)F)c(-c3cccc(C(=O)NC4CCOC4)c3)cc12 (stereo not drawn) [Compound 20034]	< 0.1	0.0118
CNC(=O)c1c(-c2ccc(F)cc2)oc2nc(CCC(F)(F)F)c(-c3cccc(C(=O)NCC(C)(F)F)c3)cc12 [Compound 20035]	< 0.1	–
CNC(=O)c1c(-c2ccc(F)cc2)oc2nc(CCC(F)(F)F)c(-c3cccc(C(=O)NC(C)(C)CCO)c3)cc12 [Compound 20036]	< 0.1	–
CNC(=O)c1c(-c2ccc(F)cc2)oc2nc(CCC(F)(F)F)c(-c3cccc(C(=O)NCC(F)(F)C(F)(F)C(F)(F)F)c3)cc12 [Compound 20037]	< 0.1	0.0106
C#CC(C)(C)NC(=O)c1cc(-c2cc3c(C(=O)NC)c(-c4ccc(F)cc4)oc3nc2CCC(F)(F)F)ccc1OC [Compound 21001]	< 0.1	–
CNC(=O)c1c(-c2ccc(F)cc2)oc2nc(CCC(F)(F)F)c(-c3ccc(OC)c(C(=O)NCC(F)(F)C(F)(F)C(F)(F)F)c3)cc12 [Compound 21002]	< 0.1	–
CNC(=O)c1c(-c2ccc(F)cc2)oc2nc(CCC(F)(F)F)c(-c3ccc(OC)c(C(=O)NC(CF)(CF)CF)c3)cc12 [Compound 21003]	< 0.1	–
CNC(=O)c1c(-c2ccc(F)cc2)oc2nc(CCC(F)(F)F)c(-c3ccc(F)c(C(=O)NC(C)C(F)(F)F)c3)cc12 (stereo not drawn) [Compound 22001]	< 0.1	0.0108
CCC(NC(=O)c1cc(-c2cc3c(C(=O)NC)c(-c4ccc(F)cc4)oc3nc2CCC(F)(F)F)ccc1F)C(F)(F)F (stereo not drawn) [Compound 22002]	< 0.1	–
CNC(=O)c1c(-c2ccc(F)cc2)oc2nc(CCC(F)(F)F)c(-c3ccc(F)c(C(=O)NC(C)(C)C(F)(F)F)c3)cc12 [Compound 22003]	< 0.1	–
CNC(=O)c1c(-c2ccc(F)cc2)oc2nc(NCC(F)(F)F)c(-c3cccc(C(=O)NC(CF)(CF)CF)c3)cc12 [Compound 30001]	< 0.1	–
C#CC(C)(C)NC(=O)c1cccc(-c2cc3c(C(=O)NC)c(-c4ccc(F)cc4)oc3nc2NCC(F)(F)F)c1 [Compound 30002]	< 0.1	0.0037
CNC(=O)c1c(-c2ccc(F)cc2)oc2nc(NCC(F)(F)F)c(-c3cccc(C(=O)NC(C)C(F)(F)F)c3)cc12 (stereo not drawn) [Compound 30004]	< 0.1	–
CCC(NC(=O)c1cccc(-c2cc3c(C(=O)NC)c(-c4ccc(F)cc4)oc3nc2NCC(F)(F)F)c1)C(F)(F)F (stereo not drawn) [Compound 30005]	< 0.1	–
CNC(=O)c1c(-c2ccc(F)cc2)oc2nc(NCC(F)(F)F)c(-c3cccc(C(=O)NC(C)(C)C(F)(F)F)c3)cc12 [Compound 30006]	< 0.1	0.0053
CNC(=O)c1c(-c2ccc(F)cc2)oc2nc(NCC(F)(F)F)c(-c3cccc(C(=O)NC(C4CC4)C(F)(F)F)c3)cc12 (stereo not drawn) [Compound 30007]	< 0.1	–
CNC(=O)c1c(-c2ccc(F)cc2)oc2nc(NCC(F)(F)F)c(-c3cccc(C(=O)NC4(C(=O)OC)CC4)c3)cc12 [Compound 30008]	< 0.1	–
